# Data as given in patent publication US20110312974A1, “HETEROARYL ANTAGONISTS OF PROSTAGLANDIN D2 RECEPTORS” (AMIRA PHARMACEUTICALS, INC., priority 2008, published 2011).
# Biological target: T1, human DP2 receptor (Homo sapiens, UniProt Q9Y5Y4)
# T1 construct: expressed in transfected cells; membrane preparation
# T1 sequence (Q9Y5Y4 1-395): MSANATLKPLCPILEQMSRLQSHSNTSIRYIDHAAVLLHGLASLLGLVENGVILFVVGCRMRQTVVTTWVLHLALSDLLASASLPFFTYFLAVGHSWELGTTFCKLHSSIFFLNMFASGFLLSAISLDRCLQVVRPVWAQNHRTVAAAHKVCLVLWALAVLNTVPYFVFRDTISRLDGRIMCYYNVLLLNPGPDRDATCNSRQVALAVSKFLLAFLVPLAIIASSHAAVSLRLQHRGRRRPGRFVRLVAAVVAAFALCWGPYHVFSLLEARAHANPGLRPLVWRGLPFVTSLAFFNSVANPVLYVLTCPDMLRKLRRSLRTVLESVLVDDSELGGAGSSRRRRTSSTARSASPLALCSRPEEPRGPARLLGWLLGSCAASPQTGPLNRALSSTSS
# Test: DP2/CRTH2 radioligand binding assay using [3H]PGD2
# Settings: hDP2 (CRTH2) binding assay; membranes of HEK293 cells expressing recombinant human DP2, 1 nM [3H]PGD2
# Description: The ability of a compound to bind to the human DP2 receptor is assessed via a radioligand binding assay using [^3H]PGD2. HEK293 cells stably expressing recombinant human DP2 are resuspended in 10 mM Hepes, 7.4 containing 1 mM DTT, lysed and centrifuged at 75,000×g to pellet the membranes. The membranes are resuspended in 10 mM Hepes, 7.4 containing 1 mM DTT and 10% glycerol to approximately 5 mg protein/ml. Membranes (2-10 μg protein/well) are incubated in 96-well plates with 1 nM [^3H]PGD2 and test compound in Assay Buffer (50 mM Hepes, 10 mM MnCl2, 1 mM EDTA, plus or minus 0.2% human serum albumin, pH 7.4) for 60 minutes at room temperature. The reactions are terminated by rapid filtration through Whatman GF/C glass fibre filter plates. The filter plates were pre-soaked in 0.33% polythylenimine for 30 minutes at room temperature then washed in Wash Buffer (50 mM Hepes, 0.5 M NaCl pH 7.4) prior to harvesting. After harvesting, the filter plates are washed 3 times with 1 ml cold Wash Buffer then dried. Scintillant is then added to the plates and the radioactivity retained on the filters is determined on a Packard TopCount (Perkin Elmer). Specific binding is determined as total radioactive binding minus non-specific binding in the presence of 10 μM PGD2. IC50s were determined using GraphPad prism analysis of drug titration curves.
row,SMILES,IC50 [nM]
1,"O=C(O)Cc1cncc(-c2ccc(C(F)(F)F)cc2CN(CCc2ccncc2)C(=O)C2CC2)c1 [Compound 1-66, [5-(2-{[N-Cyclopropanecarbonyl-N-(2-pyridin-4-yl-ethyl)-amino]-methyl}-4-trifluoromethyl-phenyl)-pyridin-3-yl]-acetic acid]",> 1000
2,"CCN(Cc1cc(C(F)(F)F)ccc1-c1cc(CC(=O)O)cnc1OCc1ccccc1)C(=O)C1CC1 [Compound 1-68, (6-Benzyloxy-5-{2-[(N-cyclopropanecarbonyl-N-ethyl-amino)-methyl]-4-trifluoromethyl-phenyl}-pyridin-3-yl)-acetic acid]",< 300
3,"CCN(Cc1cc(C(F)(F)F)ccc1-c1cc(CC(=O)O)cnc1OCC1CC1)C(=O)C1CC1 [Compound 1-69, (5-{2-[(N-Cyclopropanecarbonyl-N-ethyl-amino)-methyl]-4-trifluoromethyl-phenyl}-6-cyclopropylmethoxy-pyridin-3-yl)-acetic acid]",< 300
4,"CCN(Cc1cc(C(F)(F)F)ccc1-c1cc(CC(=O)O)cnc1OCc1csc(C)n1)C(=O)C1CC1 [Compound 1-70, [5-{2-[(N-Cyclopropanecarbonyl-N-ethyl-amino)-methyl]-4-trifluoromethyl-phenyl}-6-(2-methyl-thiazol-4-ylmethoxy)-pyridin-3-yl]-acetic acid]",< 300
5,"CCN(Cc1cc(C(F)(F)F)ccc1-c1cc(CC(=O)O)cnc1-c1ccccc1)C(=O)C1CC1 [Compound 1-76, (5-{2-[(N-Cyclopropanecarbonyl-N-ethyl-amino)-methyl]-4-trifluoromethyl-phenyl}-6-phenyl-pyridin-3-yl)-acetic acid]",> 1000
6,"CCN(Cc1cc(C(F)(F)F)ccc1-c1cncc(CC(=O)O)c1)S(=O)(=O)c1cccc2c(N(C)C)cccc12 [Compound 1-77, [5-(2-{[N-(5-Dimethylamino-naphthalene-1-sulfonyl)-N-ethyl-amino]-methyl}-4-trifluoromethyl-phenyl)-pyridin-3-yl]-acetic acid]",< 300
7,"CCNCc1cc(C(F)(F)F)ccc1-c1cncc(CC(=O)O)c1 [Compound 1-78, [5-(2-Ethylaminomethyl-4-trifluoromethyl-phenyl)-pyridin-3-yl]-acetic acid]",> 1000
8,"C[C@H]1[C@@H](c2ccccc2)OC(=O)N1Cc1cc(C(F)(F)F)ccc1-c1cncc(CC(=O)O)c1 [Compound 2-1, {5-[2-((4S,5R)-4-Methyl-2-oxo-5-phenyl-oxazolidin-3-ylmethyl)-4-trifluoromethyl-phenyl]-pyridin-3-yl}-acetic acid]",< 300
9,"CCN(Cc1cc(C(F)(F)F)ccc1-c1cnn(CC(=O)O)c1)C(=O)C1CC1 [Compound 3-1, (4-{2-[(N-Cyclopropanecarbonyl-N-ethyl-amino)-methyl]-4-trifluoromethyl-phenyl}-pyrazol-1-yl)-acetic acid]",< 300
10,"CCN(Cc1cc(C(F)(F)F)ccc1-c1c(C)nn(CC(=O)O)c1C)C(=O)C1CC1 [Compound 3-2, (4-{2-[(N-Cyclopropanecarbonyl-N-ethyl-amino)-methyl]-4-trifluoromethyl-phenyl}-3,5-dimethyl-pyrazol-1-yl)-acetic acid]",> 1000
11,"Cc1nn(CC(=O)O)c(C)c1-c1ccc(C(F)(F)F)cc1CN(Cc1ccccc1)C(=O)C1CC1 [Compound 3-3, (4-{2-[(N-Benzyl-N-cyclopropanecarbonyl-amino)-methyl]-4-trifluoromethyl-phenyl}-3,5-dimethyl-pyrazol-1-yl)-acetic acid]",< 300
